Laboratory results as given in US20070010518A1, “Method for administering levosimendan” (priority 2005, published 2007).

Columns and labels:
Assay type in all cases: in vivo, human
[1] = tested on: patients with New York Heart Association functional class II to III heart failure; experiment: Invasive hemodynamic assessments in double-blind, placebo-controlled study
Description: (§1) A double-blind, placebo-controlled, parallel group, single center study in patients with New York Heart Association functional class II to III heart failure was conducted. Patients were randomised in 1:1 ratio to receive either levosimendan or placebo. Study drug administration was initiated with a loading dose of 12 μg/kg of levosimendan or placebo delivered over 10 minutes. This was followed by a continuous infusion of 0.1 μg/kg/min for 50 minutes. If the dose was well tolerated the infusion rate was increased to 0.2 μg/kg/min for a further 23 hours. After the study drug was started, the hemodynamic assessments were repeated at 30 minutes, at two and six hours. The non-invasive hemodynamic assessments were repeated at 24-hours. Follow-up visits took place at 2, 3, 5, 7, 9 and 14 days from the beginning of the study. On these visits echocardiographic measurements were performed and blood pressure and heart rate were measured.

[2] = tested on: patients with New York Heart Association functional class II to III heart failure; experiment: Doppler echocardiographic hemodynamic measurements in double-blind, placebo-controlled study
Description: as §1
An Acuson Sequoia ultrasound system with 2.5-3.75 MHz probes was used for the Doppler echocardiographic measurements. Blood flow velocity curves were recorded at a sweep speed of 100 mm/s. Left ventricular ejection fraction was assessed by two-dimensional apical two- and four-chamber views with use of modified Simpson rule. Mitral flow velocity was assessed by pulsed wave Doppler from the apical four-chamber view by placing a 3-mm sample volume between the tip of the mitral leaflets in diastole. The following measurements were made over five consecutive cycles: maximal early and maximal late diastolic velocity and their ratio, duration of the late diastolic velocity wave, deceleration time and deceleration rate of early diastolic velocity. Peak velocities were defined as the highest point of the spectrum.

[3] = tested on: patients with New York Heart Association functional class II to III heart failure; experiment: Plasma natriuretic peptide (NT-proANP, NT-proBNP) measurements in double-blind, placebo-controlled study
Description: as §1
Blood samples (4 ml) for natriuretic peptide (NT-proANP, NT-proBNP) measurements were taken into pre-cooled EDTA tubes. Samples were taken at baseline (0-sample) and on the first study day 30 min, 2 h, 6h and 24 h after the start of the infusion and in the mornings of days 2, 3, 5, 7, 9 and 14 after the start of the study drug infusion.

[4] = after starting the 24-hour infusion
[5] = echocardiography, 24-hour infusion
[6] = after start of 24-hour infusion

C[C@@H]1CC(=O)NN=C1c1ccc(NN=C(C#N)C#N)cc1 [levosimendan, (−)-enantiomer of [[4-(1,4,5,6-tetrahydro-4-methyl-6-oxo-3-pyridazinyl)phenyl]hydrazono]propanedinitrile]
Invasively measured cardiac output (CO) ([1]; at six hours, loading dose 12 μg/kg, then infusion 0.1-0.2 μg/kg/min): 5.4 L/min | Invasively measured cardiac output (CO) ([1]; baseline, levosimendan group): 4.3 L/min | PCWP ([1]; baseline, levosimendan treatment): 20 mmHg | PCWP ([1]; in response to levosimendan treatment, loading dose 12 μg/kg, then infusion 0.1-0.2 μg/kg/min): 15 mmHg | Maintenance of beneficial hemodynamic and neurohormonal effects ([2]; after levosimendan administration (24-hour infusion)): maintained up to two weeks | Time at which echocardiographically estimated PCWP reached its lowest value [2, 4]: 2 days | Time of maximal effects on hemodynamic parameters [2, 4]: 1 to 3 days | Linearly estimated duration of an increase in CO [2, 5]: 13 days | Linearly estimated duration of the decrease in PCWP [2, 5]: 9 days | Time at which highest CO value estimated by echocardiography was detected ([2]; end of the 24-hour infusion): 24 h | Duration of treatment effect on plasma NT-proANP estimated by a linear model ([3]; 24-hour infusion): 16 days | Duration of treatment effect on plasma NT-proBNP estimated by a linear model ([3]; 24-hour infusion): 12 days | Day at which plasma NT-proANP level reached its lowest value [3, 6]: 3 days | Day at which plasma NT-proBNP level reached its lowest value [3, 6]: 2 days
